Test results reported in patent US20240124417A1, “COMPOUNDS USEFUL AS IMMUNOMODULATORS” (Bristol-Myers Squibb Company, priority 2019, published 2024).

Molecular target: T1, PD-1/PD-L1 (Homo sapiens, UniProt Q9NZQ7)
T1 construct: TVMV protease site linker (C); made in house; host or cells: HEK293T cells
Test: PD-1/PD-L1 Homogenous Time-Resolved Fluorescence (HTRF) binding assay
Conditions: PD-L1-His 10 nM, PD-1-Ig 20 nM
In short: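 Time-resolved FRET read-out using Eu-cryptate anti-Ig (1 nM final) and APC anti-His (20 nM final). Tagged extracellular domains were used in BSA/Tween-20-supplemented dPBS, with compound pre-incubated 15 min with PD-L1-His (10 nM) before PD-1-Ig (20 nM) was added for 15 min. Other human pairs: PD-L2-His 5 nM with PD-1-Ig 20 nM; PD-L1-Ig 10 nM with CD80-His 100 nM.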

T1 sequence (Q9NZQ7 18-239): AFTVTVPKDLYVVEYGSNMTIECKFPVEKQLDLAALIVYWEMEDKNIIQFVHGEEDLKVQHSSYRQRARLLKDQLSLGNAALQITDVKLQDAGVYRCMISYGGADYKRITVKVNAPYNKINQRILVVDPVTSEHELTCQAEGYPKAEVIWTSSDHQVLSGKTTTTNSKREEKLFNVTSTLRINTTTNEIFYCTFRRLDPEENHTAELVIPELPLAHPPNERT

| Compound | IC50 |
| --- | --- |
| Cc1c(COc2cc(OCc3cncc(C#N)c3)c(CN(C)CCc3nc4ccccc4[nH]3)cc2Cl)cccc1-c1cccc(OCCCN2CC[C@@H](O)C2)c1C [Example 2508, (R)-5-((2-(((2-(1H-benzo[d]imidazol-2-yl)ethyl)(methyl)amino)methyl)-4-chloro-5-((3′-(3-(3-hydroxypyrrolidin-1-yl)propoxy)-2,2′-dimethyl-[1,1′-biphenyl]-3-yl)methoxy)phenoxy)methyl)nicotinonitrile] | 6.2 nM |
| Cc1c(COc2cc(OCc3cncc(C#N)c3)c(CN(C)CCc3nc4ccccc4n3C)cc2Cl)cccc1-c1cccc(OCCCN2CC[C@@H](O)C2)c1C [Example 2510, (R)-5-((4-chloro-5-((3′-(3-(3-hydroxypyrrolidin-1-yl)propoxy)-2,2′-dimethyl-[1,1′-biphenyl]-3-yl)methoxy)-2-((methyl(2-(1-methyl-1H-benzo[d]imidazol-2-yl)ethyl)amino)methyl)phenoxy)methyl)nicotinonitrile] | 3.3 nM |
| Cc1ncsc1CCN(C)Cc1cc(Cl)c(OCc2cccc(-c3cccc(OCCCN4CC[C@@H](O)C4)c3C)c2C)cc1OCc1cncc(C#N)c1 [Example 2511, (R)-5-((4-chloro-5-((3′-(3-(3-hydroxypyrrolidin-1-yl)propoxy)-2,2′-dimethyl-[1,1′-biphenyl]-3-yl)methoxy)-2-((methyl(2-(4-methylthiazol-5-yl)ethyl)amino)methyl)phenoxy)methyl)nicotinonitrile] | 3.3 nM |
| Cc1c(COc2cc(OCc3cncc(C#N)c3)c(CN3CCC(c4cc[nH]n4)C3)cc2Cl)cccc1-c1cccc(OCCCN2CC[C@@H](O)C2)c1C (stereo partly drawn) [Example 2513, 5-((2-((3-(1H-pyrazol-3-yl)pyrrolidin-1-yl)methyl)-4-chloro-5-((3′-(3-((R)-3-hydroxypyrrolidin-1-yl)propoxy)-2,2′-dimethyl-[1,1′-biphenyl]-3-yl)methoxy)phenoxy)methyl)nicotinonitrile] | 3.6 nM |
| Cc1c(COc2cc(OCc3cncc(C#N)c3)c(CN3CCc4[nH]cnc4C3)cc2Cl)cccc1-c1cccc(OCCCN2CC[C@@H](O)C2)c1C [Example 2515, (R)-5-((4-chloro-5-((3′-(3-(3-hydroxypyrrolidin-1-yl)propoxy)-2,2′-dimethyl-[1,1′-biphenyl]-3-yl)methoxy)-2-((1,4,6,7-tetrahydro-5H-imidazo[4,5-c]pyridin-5-yl)methyl)phenoxy)methyl)nicotinonitrile] | 3.8 nM |
| Cc1c(COc2cc(OCc3cncc(C#N)c3)c(CNCCc3nc4cc(Cl)ccc4[nH]3)cc2Cl)cccc1-c1cccc(OCCCN2CC[C@@H](O)C2)c1C [Example 2516, (R)-5-((4-chloro-2-(((2-(5-chloro-1H-benzo[d]imidazol-2-yl)ethyl)amino)methyl)-5-((3′-(3-(3-hydroxypyrrolidin-1-yl)propoxy)-2,2′-dimethyl-[1,1′-biphenyl]-3-yl)methoxy)phenoxy)methyl)nicotinonitrile] | 4.5 nM |
| Cc1c(COc2cc(OCc3cncc(C#N)c3)c(CN(C)Cc3csc(N)n3)cc2Cl)cccc1-c1cccc(OCCCN2CC[C@@H](O)C2)c1C [Example 2521, (R)-5-((2-((((2-aminothiazol-4-yl)methyl)(methyl)amino)methyl)-4-chloro-5-((3′-(3-(3-hydroxypyrrolidin-1-yl)propoxy)-2,2′-dimethyl-[1,1′-biphenyl]-3-yl)methoxy)phenoxy)methyl)nicotinonitrile] | 0.7 nM |
| Cc1onc(-c2ccccc2)c1CNCc1cc(Cl)c(OCc2cccc(-c3cccc(OCCCN4CC[C@@H](O)C4)c3C)c2C)cc1OCc1cncc(C#N)c1 [Example 2522, (R)-5-((4-chloro-5-((3′-(3-(3-hydroxypyrrolidin-1-yl)propoxy)-2,2′-dimethyl-[1,1′-biphenyl]-3-yl)methoxy)-2-((((5-methyl-3-phenylisoxazol-4-yl)methyl)amino)methyl)phenoxy)methyl)nicotinonitrile] | 23.2 nM |
| Cc1onc(-c2ccccc2)c1CN(C)Cc1cc(Cl)c(OCc2cccc(-c3cccc(OCCCN4CC[C@@H](O)C4)c3C)c2C)cc1OCc1cncc(C#N)c1 [Example 2523, (R)-5-((4-chloro-5-((3′-(3-(3-hydroxypyrrolidin-1-yl)propoxy)-2,2′-dimethyl-[1,1′-biphenyl]-3-yl)methoxy)-2-((methyl((5-methyl-3-phenylisoxazol-4-yl)methyl)amino)methyl)phenoxy)methyl)nicotinonitrile] | 178 nM |
| Cc1c(COc2cc(OCc3cncc(C#N)c3)c(CNCc3cn[nH]c3)cc2Cl)cccc1-c1cccc(OCCCN2CC[C@@H](O)C2)c1C [Example 2524, (R)-5-((2-((((1H-pyrazol-4-yl)methyl)amino)methyl)-4-chloro-5-((3′-(3-(3-hydroxypyrrolidin-1-yl)propoxy)-2,2′-dimethyl-[1,1′-biphenyl]-3-yl)methoxy)phenoxy)methyl)nicotinonitrile] | 5.5 nM |
| Cc1c(COc2cc(OCc3cncc(C#N)c3)c(CN(C)Cc3cn[nH]c3)cc2Cl)cccc1-c1cccc(OCCCN2CC[C@@H](O)C2)c1C [Example 2525, (R)-5-((2-((((1H-pyrazol-4-yl)methyl)(methyl)amino)methyl)-4-chloro-5-((3′-(3-(3-hydroxypyrrolidin-1-yl)propoxy)-2,2′-dimethyl-[1,1′-biphenyl]-3-yl)methoxy)phenoxy)methyl)nicotinonitrile] | 2.2 nM |
| Cc1noc(C)c1CNCc1cc(Cl)c(OCc2cccc(-c3cccc(OCCCN4CC[C@@H](O)C4)c3C)c2C)cc1OCc1cncc(C#N)c1 [Example 2526, (R)-5-((4-chloro-2-((((3,5-dimethylisoxazol-4-yl)methyl)amino)methyl)-5-((3′-(3-(3-hydroxypyrrolidin-1-yl)propoxy)-2,2′-dimethyl-[1,1′-biphenyl]-3-yl)methoxy)phenoxy)methyl)nicotinonitrile] | 3 nM |
| Cc1noc(C)c1CN(C)Cc1cc(Cl)c(OCc2cccc(-c3cccc(OCCCN4CC[C@@H](O)C4)c3C)c2C)cc1OCc1cncc(C#N)c1 [Example 2527, (R)-5-((4-chloro-2-((((3,5-dimethylisoxazol-4-yl)methyl)(methyl)amino)methyl)-5-((3′-(3-(3-hydroxypyrrolidin-1-yl)propoxy)-2,2′-dimethyl-[1,1′-biphenyl]-3-yl)methoxy)phenoxy)methyl)nicotinonitrile] | 5.4 nM |

Continued, values first:

| IC50 | Compound |
| --- | --- |
| 0.2 nM | Cc1c(COc2cc(OCc3cncc(C#N)c3)c(CN(C)CCc3ncn[nH]3)cc2Cl)cccc1-c1cccc(OCCCN2CC[C@@H](O)C2)c1C [Example 2509, (R)-5-((2-(((2-(1H-1,2,4-triazol-5-yl)ethyl)(methyl)amino)methyl)-4-chloro-5-((3′-(3-(3-hydroxypyrrolidin-1-yl)propoxy)-2,2′-dimethyl-[1,1′-biphenyl]-3-yl)methoxy)phenoxy)methyl)nicotinonitrile] |
| 3.9 nM | Cc1c(COc2cc(OCc3cncc(C#N)c3)c(CN3CCc4[nH]ncc4C3)cc2Cl)cccc1-c1cccc(OCCCN2CC[C@@H](O)C2)c1C [Example 2512, (R)-5-((4-chloro-5-((3′-(3-(3-hydroxypyrrolidin-1-yl)propoxy)-2,2′-dimethyl-[1,1′-biphenyl]-3-yl)methoxy)-2-((1,4,6,7-tetrahydro-5H-pyrazolo[4,3-c]pyridin-5-yl)methyl)phenoxy)methyl)nicotinonitrile] |
| 1.9 nM | Cc1c(COc2cc(OCc3cncc(C#N)c3)c(CNCCc3cc[nH]n3)cc2Cl)cccc1-c1cccc(OCCCN2CC[C@@H](O)C2)c1C [Example 2514, (R)-5-((2-(((2-(1H-pyrazol-3-yl)ethyl)amino)methyl)-4-chloro-5-((3′-(3-(3-hydroxypyrrolidin-1-yl)propoxy)-2,2′-dimethyl-[1,1′-biphenyl]-3-yl)methoxy)phenoxy)methyl)nicotinonitrile] |
| 12.4 nM | Cc1c(COc2cc(OCc3cncc(C#N)c3)c(CN(C)CCc3nc4cc(Cl)ccc4[nH]3)cc2Cl)cccc1-c1cccc(OCCCN2CC[C@@H](O)C2)c1C [Example 2517, (R)-5-((4-chloro-2-(((2-(5-chloro-1H-benzo[d]imidazol-2-yl)ethyl)(methyl)amino)methyl)-5-((3′-(3-(3-hydroxypyrrolidin-1-yl)propoxy)-2,2′-dimethyl-[1,1′-biphenyl]-3-yl)methoxy)phenoxy)methyl)nicotinonitrile] |
| 4.4 nM | Cc1c(COc2cc(OCc3cncc(C#N)c3)c(CN(C)CCc3cc[nH]n3)cc2Cl)cccc1-c1cccc(OCCCN2CC[C@@H](O)C2)c1C [Example 2518, (R)-5-((2-(((2-(1H-pyrazol-3-yl)ethyl)(methyl)amino)methyl)-4-chloro-5-((3′-(3-(3-hydroxypyrrolidin-1-yl)propoxy)-2,2′-dimethyl-[1,1′-biphenyl]-3-yl)methoxy)phenoxy)methyl)nicotinonitrile] |
| 1 nM | Cc1c(COc2cc(OCc3cncc(C#N)c3)c(CNCCc3ncn[nH]3)cc2Cl)cccc1-c1cccc(OCCCN2CC[C@@H](O)C2)c1C [Example 2519, (R)-5-((2-(((2-(1H-1,2,4-triazol-5-yl)ethyl)amino)methyl)-4-chloro-5-((3′-(3-(3-hydroxypyrrolidin-1-yl)propoxy)-2,2′-dimethyl-[1,1′-biphenyl]-3-yl)methoxy)phenoxy)methyl)nicotinonitrile] |
| 3.1 nM | Cc1c(COc2cc(OCc3cncc(C#N)c3)c(CNCc3csc(N)n3)cc2Cl)cccc1-c1cccc(OCCCN2CC[C@@H](O)C2)c1C [Example 2520, (R)-5-((2-((((2-aminothiazol-4-yl)methyl)amino)methyl)-4-chloro-5-((3′-(3-(3-hydroxypyrrolidin-1-yl)propoxy)-2,2′-dimethyl-[1,1′-biphenyl]-3-yl)methoxy)phenoxy)methyl)nicotinonitrile] |
